Assay results reported in ChEMBL document CHEMBL3352520, “CoMFA and CoMSIA analysis of ACE-inhibitory, antimicrobial and bitter-tasting peptides” (Eur J Med Chem, 2014).
Residues, ends and D or L forms follow the SMILES beside them.

Biological target: Angiotensin-converting enzyme (Homo sapiens) (UniProt P12821)
Experiment: Inhibition of ACE (unknown origin)
Set-up: unit not given here

Angiotensin-converting enzyme (Homo sapiens), sequence (P12821 whole entry): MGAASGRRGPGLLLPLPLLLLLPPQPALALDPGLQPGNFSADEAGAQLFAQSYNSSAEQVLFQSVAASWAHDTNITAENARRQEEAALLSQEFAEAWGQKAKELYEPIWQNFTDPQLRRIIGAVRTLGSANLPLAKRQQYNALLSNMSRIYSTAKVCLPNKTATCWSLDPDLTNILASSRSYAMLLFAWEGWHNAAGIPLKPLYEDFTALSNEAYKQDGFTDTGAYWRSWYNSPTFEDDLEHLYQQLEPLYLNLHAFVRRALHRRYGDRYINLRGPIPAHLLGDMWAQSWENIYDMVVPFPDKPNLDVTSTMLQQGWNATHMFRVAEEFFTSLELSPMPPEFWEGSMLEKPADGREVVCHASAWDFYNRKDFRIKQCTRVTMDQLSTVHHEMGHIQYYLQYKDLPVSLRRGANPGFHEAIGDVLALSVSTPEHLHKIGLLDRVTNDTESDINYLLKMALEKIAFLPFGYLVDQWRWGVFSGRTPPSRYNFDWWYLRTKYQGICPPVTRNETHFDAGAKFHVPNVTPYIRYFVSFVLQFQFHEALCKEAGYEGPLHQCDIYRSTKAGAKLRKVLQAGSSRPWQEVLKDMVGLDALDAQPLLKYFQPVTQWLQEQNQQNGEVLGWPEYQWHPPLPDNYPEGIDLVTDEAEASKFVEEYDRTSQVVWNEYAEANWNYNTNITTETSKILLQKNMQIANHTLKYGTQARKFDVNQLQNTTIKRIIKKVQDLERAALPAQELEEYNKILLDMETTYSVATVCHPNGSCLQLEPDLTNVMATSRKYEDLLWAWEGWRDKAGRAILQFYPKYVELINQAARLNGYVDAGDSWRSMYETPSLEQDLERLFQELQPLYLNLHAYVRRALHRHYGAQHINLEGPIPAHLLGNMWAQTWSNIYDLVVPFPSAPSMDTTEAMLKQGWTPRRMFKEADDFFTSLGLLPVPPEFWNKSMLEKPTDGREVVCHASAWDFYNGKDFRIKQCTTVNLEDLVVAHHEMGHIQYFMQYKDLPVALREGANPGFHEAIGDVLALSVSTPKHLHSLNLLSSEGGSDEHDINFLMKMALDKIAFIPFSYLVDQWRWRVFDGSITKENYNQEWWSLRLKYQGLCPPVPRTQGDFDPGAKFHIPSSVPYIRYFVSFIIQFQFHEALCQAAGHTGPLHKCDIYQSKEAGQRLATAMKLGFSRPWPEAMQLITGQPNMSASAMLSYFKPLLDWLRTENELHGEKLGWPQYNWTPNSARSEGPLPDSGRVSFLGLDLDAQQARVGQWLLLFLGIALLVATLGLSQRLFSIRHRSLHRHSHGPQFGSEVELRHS

Row | Molecule | logIC50
1 | CC[C@H](C)[C@H](N)C(=O)N[C@@H](CCCNC(=N)N)C(=O)N1CCC[C@H]1C(=O)O (H-Ile-Arg-Pro-OH) | -0.13
2 | CC[C@H](C)[C@H](N)C(=O)N[C@@H](CC(C)C)C(=O)N1CCC[C@H]1C(=O)N1CCC[C@H]1C(=O)O (H-ILPP-OH) | 2.24
3 | CC[C@H](C)[C@H](N)C(=O)N[C@@H](CCC(=O)O)C(=O)N1CCC[C@H]1C(=O)O (H-Ile-Glu-Pro-OH) | 0.2
4 | H-VRGPFP-OH | 2.77
5 | NC(=O)CC[C@H](NC(=O)[C@@H](N)Cc1ccccc1)C(=O)N1CCC[C@H]1C(=O)O (H-Phe-Gln-Pro-OH) | 1.08
6 | C[C@H](NC(=O)[C@@H](N)Cc1ccccc1)C(=O)N1CCC[C@H]1C(=O)O (H-Phe-Ala-Pro-OH) | 0.58
7 | NCC(=O)N[C@@H](CCC(=O)O)C(=O)N1CCC[C@H]1C(=O)O (H-Gly-Glu-Pro-OH) | 2.51
8 | N[C@@H](Cc1ccccc1)C(=O)N[C@@H](Cc1ccc(O)cc1)C(=O)O (H-Phe-Tyr-OH) | 1.4
9 | CC(C)[C@H](N)C(=O)N[C@@H](CO)C(=O)N[C@@H](CO)C(=O)N1CCC[C@H]1C(=O)O (H-VSSP-OH) | 1
10 | N=C(N)NCCC[C@H](NC(=O)CN)C(=O)N1CCC[C@H]1C(=O)O (H-Gly-Arg-Pro-OH) | 1.3
11 | C[C@@H](O)[C@H](N)C(=O)N1CCC[C@H]1C(=O)O (H-Thr-Pro-OH) | 2.46
12 | CC(C)C[C@H](N)C(=O)N[C@H](C(=O)N1CCC[C@H]1C(=O)N1CCC[C@H]1C(=O)O)C(C)C (H-LVPP-OH) | 2.1
13 | N[C@@H](Cc1ccccc1)C(=O)N[C@@H](CCC(=O)O)C(=O)N1CCC[C@H]1C(=O)O (H-Phe-Glu-Pro-OH) | 1.08
14 | CC[C@H](C)[C@H](N)C(=O)N[C@@H](CCCCN)C(=O)N1CCC[C@H]1C(=O)O (H-Ile-Lys-Pro-OH) | 0.84
15 | CSCC[C@H](N)C(=O)N[C@@H](CC(N)=O)C(=O)N1CCC[C@H]1C(=O)O (H-Met-Asn-Pro-OH) | 1.82
16 | NCCCC[C@H](N)C(=O)N1CCC[C@H]1C(=O)O (H-Lys-Pro-OH) | 1.34
17 | H-LHLPYP-OH | 0.36
18 | H-APVPP-OH | 2.8
19 | CC(C)C[C@H](N)C(=O)N[C@@H](CCCN=C(N)N)C(=O)N1CCC[C@H]1C(=O)O (H-Leu-Arg-Pro-OH) | -0.57
20 | H-VHLAP-OH | 0.65
21 | CC(C)C[C@H](NC(=O)[C@@H](N)CC(=O)O)C(=O)N1CCC[C@H]1C(=O)O (H-Asp-Leu-Pro-OH) | 0.68
22 | N[C@@H](CO)C(=O)N[C@@H](Cc1ccc(O)cc1)C(=O)O (H-Ser-Tyr-OH) | 1.82
23 | CC(C)[C@H](N)C(=O)N1CCC[C@H]1C(=O)O (H-Val-Pro-OH) | 2.62
24 | CC(C)C[C@H](N)C(=O)N[C@@H](C)C(=O)N1CCC[C@H]1C(=O)O (H-Leu-Ala-Pro-OH) | 0.54
25 | CC(C)[C@H](NC(=O)[C@@H](N)Cc1ccccc1)C(=O)N[C@@H](C)C(=O)N1CCC[C@H]1C(=O)O (H-FVAP-OH) | 1

Row | Molecule | logIC50
26 | CC(C)C[C@H](NC(=O)[C@H](C)N)C(=O)N1CCC[C@H]1C(=O)O (H-Ala-Leu-Pro-OH) | 2.38
27 | NCCCC[C@H](N)C(=O)N[C@@H](Cc1ccccc1)C(=O)O | 1.45
28 | N[C@@H](Cc1ccccc1)C(=O)N1CCC[C@H]1C(=O)O (H-Phe-Pro-OH) | 2.5
29 | N[C@@H](CC(=O)O)C(=O)N[C@@H](Cc1ccccc1)C(=O)O (H-Asp-Phe-OH) | 2.56
30 | NC(N)=NCCC[C@H](N)C(=O)N1CCC[C@H]1C(=O)O (H-Arg-Pro-OH) | 1.32
31 | NC(=O)C[C@H](N)C(=O)N[C@@H](Cc1ccccc1)C(=O)O (H-Asn-Phe-OH) | 1.67
32 | N[C@@H](CO)C(=O)N1CCC[C@H]1C(=O)N[C@@H](Cc1ccc(O)cc1)C(=O)N1CCC[C@H]1C(=O)O (H-SPYP-OH) | 2.93
33 | CC(C)[C@H](N)C(=O)N[C@H](C(=O)N1CCC[C@H]1C(=O)N1CCC[C@H]1C(=O)O)C(C)C (H-VVPP-OH) | 2.45
34 | H-GRVMP-OH | 2.4
35 | H-LHLPLP-OH | 0.57
36 | CC[C@H](C)[C@H](N)C(=O)N[C@@H](Cc1c[nH]c2ccccc12)C(=O)O | 0.67
37 | NCCCC[C@H](NC(=O)CN)C(=O)N1CCC[C@H]1C(=O)O (H-Gly-Lys-Pro-OH) | 2.55
38 | CC(C)C[C@H](N)C(=O)N[C@@H](CC(N)=O)C(=O)N1CCC[C@H]1C(=O)O (H-Leu-Asn-Pro-OH) | 1.76
39 | NCC(=O)N[C@@H](Cc1c[nH]c2ccccc12)C(=O)O (H-Gly-Trp-OH) | 1.4
40 | NC(=O)C[C@H](N)C(=O)N[C@@H](Cc1ccc(O)cc1)C(=O)O (H-Asn-Tyr-OH) | 1.51
41 | H-DKIHP-OH | 2.05
42 | NCC(=O)N[C@@H](Cc1ccc(O)cc1)C(=O)O (H-Gly-Tyr-OH) | 2.32
43 | H-FFVAP-OH | 0.78
44 | H-LHLYLP-OH | 1.28
45 | H-SKVPP-OH | 1.87
46 | CC(C)C[C@H](N)C(=O)N[C@@H](Cc1c[nH]c2ccccc12)C(=O)O | 1.24
47 | H-HQIYP-OH | 2.04
48 | H-IAYKP-OH | 0.34
49 | H-PVVVPP-OH | 2.07

More lines, now with the values ahead:

Row | logIC50 | Molecule
50 | 2.9 | H-LALPP-OH
51 | 0.96 | CC(C)[C@H](N)C(=O)N[C@@H](Cc1ccccc1)C(=O)O (H-Val-Phe-OH)
52 | 2.6 | H-TKVIP-OH
53 | 0.43 | CC[C@H](C)[C@H](N)C(=O)N[C@@H](C)C(=O)N1CCC[C@H]1C(=O)O (H-Ile-Ala-Pro-OH)
54 | 1 | CC(C)[C@H](N)C(=O)N[C@@H](CO)C(=O)N1CCC[C@H]1C(=O)O (H-Val-Ser-Pro-OH)
55 | 0.59 | C[C@H](NC(=O)[C@H](Cc1c[nH]c2ccccc12)NC(=O)CN)C(=O)N1CCC[C@H]1C(=O)O (H-GWAP-OH)
56 | 0.78 | H-LHLPAP-OH
57 | 1.08 | C[C@H](N)C(=O)N[C@@H](Cc1c[nH]c2ccccc12)C(=O)O (H-Ala-Trp-OH)
58 | 1.42 | N[C@@H](Cc1cnc[nH]1)C(=O)N[C@@H](Cc1ccc(O)cc1)C(=O)O (H-His-Tyr-OH)
59 | 2.46 | CC(C)[C@H](N)C(=O)N[C@@H](Cc1ccc(O)cc1)C(=O)N1CCC[C@H]1C(=O)O (H-Val-Tyr-Pro-OH)
60 | 1.51 | CC(C)C[C@H](N)C(=O)N[C@@H](Cc1ccc(O)cc1)C(=O)O
61 | 0.82 | CC(C)C[C@H](N)C(=O)N[C@@H](Cc1ccc(O)cc1)C(=O)N1CCC[C@H]1C(=O)O (H-Leu-Tyr-Pro-OH)
62 | 0.28 | CC(C)C[C@H](N)C(=O)N[C@@H](CCC(N)=O)C(=O)N1CCC[C@H]1C(=O)O (H-Leu-Gln-Pro-OH)
63 | 1.9 | H-AVPYP-OH
64 | 2.23 | H-VLIVP-OH
65 | 1.81 | H-LAYFYP-OH
66 | 0.28 | H-LHLPGP-OH
67 | 2.24 | H-VIEKYP-OH
68 | 0.28 | CC(C)C[C@H](N)C(=O)N[C@@H](CCC(=O)O)C(=O)N1CCC[C@H]1C(=O)O (H-Leu-Glu-Pro-OH)
69 | 2.85 | NCCCC[C@H](NC(=O)[C@@H]1CCCN1)C(=O)N[C@@H](Cc1cnc[nH]1)C(=O)N1CCC[C@H]1C(=O)O (H-PKHP-OH)
70 | 0.49 | CC(C)[C@H](NC(=O)[C@H](C)N)C(=O)NCC(=O)N1CCC[C@H]1C(=O)O (H-AVGP-OH)
71 | 2.44 | NCC(=O)N[C@@H](Cc1ccccc1)C(=O)O (H-Gly-Phe-OH)
72 | 2.53 | CC(C)[C@H](NC(=O)[C@H](C)N)C(=O)N1CCC[C@H]1C(=O)O (H-Ala-Val-Pro-OH)
73 | 2.86 | N[C@@H](Cc1ccc(O)cc1)C(=O)N1CCC[C@H]1C(=O)O (H-Tyr-Pro-OH)
74 | 1.2 | NC(N)=NCCC[C@H](N)C(=O)N[C@@H](Cc1c[nH]c2ccccc12)C(=O)O (H-Arg-Trp-OH)
75 | 2.04 | H-PVPQP-OH

Row | logIC50 | Molecule
76 | 1.79 | H-DYGLYP-OH
77 | 2 | N[C@@H](CC(=O)O)C(=O)N[C@@H](Cc1ccc(O)cc1)C(=O)O (H-Asp-Tyr-OH)
78 | 0.6 | CC(C)C[C@H](N)C(=O)N[C@@H](CCCCN)C(=O)N1CCC[C@H]1C(=O)O (H-Leu-Lys-Pro-OH)
79 | 1.65 | CSCC[C@H](N)C(=O)N[C@@H](Cc1ccccc1)C(=O)O (H-Met-Phe-OH)
80 | 1.97 | NC(N)=NCCC[C@H](N)C(=O)N[C@@H](Cc1ccccc1)C(=O)O
81 | 0.95 | H-LHLWLP-OH
82 | 1.49 | H-VLPIP-OH
83 | 1.42 | CC(C)[C@H](N)C(=O)NCC(=O)N1CCC[C@H]1C(=O)O (H-Val-Gly-Pro-OH)
84 | 1.66 | H-RPQIPP-OH
85 | 1.56 | H-VLPYP-OH
86 | 0.79 | CC[C@H](C)[C@H](N)C(=O)N[C@@H](Cc1ccc(O)cc1)C(=O)O (H-Ile-Tyr-OH)
87 | 1.71 | N=C(N)NCCC[C@H](N)C(=O)N[C@@H](Cc1ccc(O)cc1)C(=O)O (H-Arg-Tyr-OH)
88 | 1.46 | CSCC[C@H](NC(=O)[C@@H](N)C(C)C)C(=O)N1CCC[C@H]1C(=O)O (H-Val-Met-Pro-OH)
89 | 0.34 | CC(C)[C@H](N)C(=O)N[C@@H](CCCNC(=N)N)C(=O)N1CCC[C@H]1C(=O)O (H-Val-Arg-Pro-OH)
90 | 2.32 | C[C@@H](O)[C@H](N)C(=O)N[C@@H](CC(N)=O)C(=O)N1CCC[C@H]1C(=O)O (H-Thr-Asn-Pro-OH)
91 | 1 | CSCC[C@H](N)C(=O)N[C@@H](Cc1c[nH]c2ccccc12)C(=O)O (H-Met-Trp-OH)
92 | 2.56 | NCC(=O)N1CCC[C@H]1C(=O)O (H-Gly-Pro-OH)
93 | 1.2 | CC(C)[C@H](N)C(=O)N[C@@H](Cc1ccc(O)cc1)C(=O)O (H-Val-Tyr-OH)
94 | 1.88 | C[C@H](N)C(=O)N[C@@H](Cc1ccccc1)C(=O)O
95 | 1.28 | C[C@H](N)C(=O)N[C@@H](Cc1ccc(O)cc1)C(=O)O (H-Ala-Tyr-OH)
96 | 1.95 | C[C@@H](O)[C@H](N)C(=O)N[C@@H](Cc1ccccc1)C(=O)O (H-Thr-Phe-OH)
97 | 1.26 | H-VHLPP-OH
98 | 2.11 | CC[C@H](C)[C@H](N)C(=O)N1CCC[C@H]1C(=O)O (H-Ile-Pro-OH)
99 | 0.23 | CC(C)C[C@H](N)C(=O)N[C@@H](CO)C(=O)N1CCC[C@H]1C(=O)O (H-Leu-Ser-Pro-OH)
100 | 2.53 | H-PQPIP-OH
